Each block holds one molecule with its values, some of them ahead of it.
Columns and labels:
[1] = test system: lysates of wild-type (WT) yeast; assay: SNO-RAC/LC-MS/MS identification of SNO-proteins in treated yeast lysates; type: biochemical, yeast (S. cerevisiae); settings: lysates treated with 60 μM for 10 min
Protocol: (§1) For analysis in yeast, cells were grown to absorbance 600 nm=1.0 and lysed by bead beating in lysis buffer (20 mM bis-tris propane, pH 7.0, 50 mM NaCl, 100 mM EDTA, 100 μM DTPA, 1 mM PMSF and protease inhibitor cocktail (Roche)). The lysate was centrifuged at 20,000 g for 10 min and the supernatant was adjusted to 1 mg/ml protein and retained for analysis. For analysis of SNO-proteins by mercury-coupled-photolysis-chemiluminescence, samples were processed as previously described. For SNO-RAC, some samples (1 mg/ml) were left untreated or treated for 10 min with 60 μM SNO-CoA±100 μM NADPH. The reaction was stopped by adding 3 volumes of ice-cold acetone, followed by precipitation at −20° C. for 20 min. […] Eluates were analyzed by SDS-PAGE followed by Western blotting for erg10 (see below) or, for mass spectrometric analysis, individual lanes were excised from the gel and subjected to trypsin digest prior to processing for LC/MS-MS (see below). […]
(§2) Prior to analysis by LC-MS/MS, samples were passed through a C18 spin column (Thermo Pierce, Rockford, Ill.) and reconstituted in 0.1% formic acid. […] For peptide identification and quantification using iTRAQ reporter ions, MS analysis was performed using a hybrid linear ion trap Orbitrap Velos mass spectrometer (LTQ-Orbitrap Velos, Thermo, Waltham, Mass.). […]

[2] = target: T1, Erg10 (acetoacetyl-CoA thiolase) (Saccharomyces cerevisiae, UniProt P41338); assay: Assay for acetoacetyl-CoA thiolase (Erg10) activity; type: biochemical, yeast (S. cerevisiae); settings: for Effect on Erg10 thiolase activity: yeast extracts and purified protein (FIG. 4D, E)
T1 construct: Erg10 activity was assayed in extracts of WT yeast in the presence or absence of SNO-CoA; endogenous in cells; host or cells: wild-type S. cerevisiae lysate/extract
T1 sequence (P41338 whole entry): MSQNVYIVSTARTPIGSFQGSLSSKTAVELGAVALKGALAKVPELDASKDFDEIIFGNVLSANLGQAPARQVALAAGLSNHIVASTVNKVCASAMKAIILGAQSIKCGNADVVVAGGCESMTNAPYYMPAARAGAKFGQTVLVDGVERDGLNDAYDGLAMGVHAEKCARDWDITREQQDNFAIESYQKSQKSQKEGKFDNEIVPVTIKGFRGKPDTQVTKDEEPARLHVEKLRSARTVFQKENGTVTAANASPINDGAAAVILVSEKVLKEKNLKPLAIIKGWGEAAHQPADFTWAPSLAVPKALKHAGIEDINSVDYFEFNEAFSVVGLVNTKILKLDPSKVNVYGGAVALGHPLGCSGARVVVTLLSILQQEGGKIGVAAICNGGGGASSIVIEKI
Protocol: Acetoacetyl-CoA thiolase activity was assayed in the physiological forward direction (2 acetyl-CoA→acetoactyl-CoA+CoA-SH) by following the formation of CoA-SH with 5,5′-dithiobis(2-nitrobenzoic acid) (DTNB) at 412 nm, as outlined recently for assay of HMG-CoA synthase activity. This approach avoids background absorbance in lysates and interference from added SNO-CoA in the reverse-reaction assay of acetoacetyl-CoA consumption at 300 nm (acetoacetyl-CoA+CoA-SH→2 acetyl-CoA). The assay was performed in 20 mM tris pH 8.0, containing 0.1 mM EDTA and 0.1 mM DTPA. The reaction mixture (1 ml) contained yeast lysate and 100 μM acetyl-CoA. Reaction without the addition of acetyl-CoA was used as background control. In some experiments, various concentrations of GSNO or SNO-CoA were also added. The reaction was monitored following the addition of 0.5 mM DTNB for 3 min at 412 nm. Thiolase activity was determined using rates between 1 and 3 minutes.

Adh6 = target: T2, Adh6 (Saccharomyces cerevisiae, UniProt Q04894); assay: Kinetic analysis and substrate specificity of SNO-CoA reductase activity of purified Adh6; type: biochemical, yeast (S. cerevisiae); settings: purified Adh6 20 nM, NADPH 100 μM, substrate 100 μM (FIG. 2D)
T2 construct: endogenous in cells; host or cells: S. cerevisiae cells; five-step chromatographic purification from crude extract
T2 sequence (Q04894 1-360): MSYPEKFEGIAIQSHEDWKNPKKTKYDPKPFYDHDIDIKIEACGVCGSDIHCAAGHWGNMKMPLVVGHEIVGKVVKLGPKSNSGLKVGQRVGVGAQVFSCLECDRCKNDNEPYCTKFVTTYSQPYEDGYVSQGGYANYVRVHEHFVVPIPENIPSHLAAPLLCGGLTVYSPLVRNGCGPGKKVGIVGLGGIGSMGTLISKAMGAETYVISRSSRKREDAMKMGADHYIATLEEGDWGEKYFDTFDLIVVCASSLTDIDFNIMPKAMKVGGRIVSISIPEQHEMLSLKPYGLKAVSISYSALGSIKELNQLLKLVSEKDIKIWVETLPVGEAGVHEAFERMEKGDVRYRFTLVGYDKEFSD
Protocol: (§3) Kinetic analysis was carried out with purified Adh6 and AKR1A1. The reactions contained a fixed concentration of NADPH (100 μM) and several concentrations of SNO-CoA.
(§4) Kinetic analysis was carried out employing assay conditions as above. For Km determination, reactions (4-5 replicates) were performed with a fixed amount of purified Adh6, 100 μM NADPH and SNO-CoA concentrations of 16-375 μM. Initial rates were calculated from the absorbance decrease at 340 nm using a combined extinction coefficient of 7.06 mM^−1 cm^−1 for SNO and NADPH. The kcat was determined at saturating substrate concentrations.

WT and adh6Δ yeast = assay: Metabolomic analysis of mevalonate, CoA and acetyl-CoA in treated yeast; type: cell-based, yeast (S. cerevisiae); settings: 2 hr
Protocol: In extracts of WT and adh6Δ yeast (untreated and following treatment with EtCysNO), mevalonate, CoA and acetyl-CoA were separated and quantified by GC-MS (mevalonate) or LC-MS/MS (CoA, acetyl-CoA).
Yeast cells grown to mid-log phase (absorbance 600 nm=0.4-0.6) were left untreated or treated with EtCysNO (100 μM) for 2 hrs. Cells were harvested and washed with ice-cold H2O containing 0.1 mM EDTA or DTPA and stored at −80° C. until further analysis. To the samples, 3 ml of MeOH: H2O (8:2) was added followed by addition of 100 μl of D4 (1 mM) citrate as an internal standard. Samples were homogenized for 1 minute and 1 ml of the subsequent homogenate was taken and centrifuged at 800 g for 20 minutes. Supernatant was dried by nitrogen gas. 60 μl of N,O-bistrifluoroacetaniide was added to the dried residue and incubated at 70° C. for 30 minutes. Analyses were carried out on an Agilent 5973 mass spectrometer, linked to a 6890 gas chromatograph system equipped with an autosampler. An Agilent VF-5MS capillary column (60 m×0.32 mm×0.25 μm) was used for chromatographic separation. The carrier gas was helium (1 ml/min) with a pulse pressure of 20.1 p.s.i. The injection was in splitless mode. The temperature for both inlet and transfer line was set at 300° C. The ion source and quadrupole temperature were set at 230 and 150° C. The GC temperature program was as follows: start at 80° C., hold for 1 min, and increase by 10° C./min to 300° C., and it remained at 300° C. for 9 min. Mevalonate and internal standard signals were monitored at its nominal m/z with SIM mode. The m/z monitored for mevalonate and internal standard: 349 and 469, respectively. All the masses were measured in Electron Impact Ion Source. The retention times of mevalonate and internal standard are 15.2 and 18.1 minutes, respectively.
Yeast cells grown to mid-log phase (absorbance 600 nm=0.4-0.6) were left untreated or treated with EtCysNO (500 μM) for 2 hrs. […]

intact yeast cells = assay: SNO-RAC/iTRAQ identification of SNO-proteins in treated intact yeast; type: cell-based, yeast (S. cerevisiae); settings: intact cells treated with 100 μM for 2 hr
Protocol: Protein S-nitrosylation was assessed by the SNO-RAC assay, and differences in the profile of protein S-nitrosylation in WT versus adh6Δ yeast (under basal growth conditions and upon treatment of cells with EtCysNO) were quantified by iTRAQ labeling.
as §1, with “described.” for “described. For SNO-RAC, some samples (1 mg/ml) were left untreated or treated for 10 min with 60 μM SNO-CoA±100 μM NADPH. The reaction was stopped by adding 3 volumes of ice-cold acetone, followed by precipitation at −20° C. for 20 min.”
as §2

[3] = substrate: CC(C)(COP(=O)(O)OP(=O)(O)OC[C@H]1O[C@@H](n2cnc3c(N)ncnc32)[C@H](O)[C@@H]1OP(=O)(O)O)[C@@H](O)C(=O)NCCC(=O)NCCSN=O; assay: Kinetic analysis and substrate specificity of SNO-CoA reductase activity of purified Adh6; type: biochemical, yeast (S. cerevisiae); settings: other: purified Adh6, 100 μM NADPH
Protocol: as §3, §4

[4] = substrate: CC(C)(COP(=O)(O)OP(=O)(O)OC[C@H]1O[C@@H](n2cnc3c(N)ncnc32)[C@H](O)[C@@H]1OP(=O)(O)O)[C@@H](O)C(=O)NCCC(=O)NCCSN=O; assay: Kinetic analysis of SNO-CoA reductase activity of purified AKR1A1; type: biochemical, bovine; settings: other: purified AKR1A1, 100 μM NADPH; pH 7.0
Protocol: as §3
Kinetic analyses were carried out in 50 mM phosphate buffer, pH 7.0, containing 100 μM EDTA and DTPA. For Km determination, reactions (2-4 replicates) were performed with a fixed amount of purified AKR1A1, 100 μM NADPH and 2-500 μM SNO-CoA. Initial rates were calculated from the absorbance decrease at 340 nm. The kcat was determined at saturating substrate concentrations.

Molecule: CC(C)(COP(=O)(O)OP(=O)(O)OC[C@H]1O[C@@H](n2cnc3c(N)ncnc32)[C@H](O)[C@@H]1OP(=O)(O)O)[C@@H](O)C(=O)NCCC(=O)NCCSN=O [SNO-CoA, S-nitroso-CoA]
Number of SNO-proteins identified [1]: 345 | IC50 ([2]; purified protein, read-out: IC50 for inhibition of Erg10 thiolase activity): 4 µM | Effect on Erg10 thiolase activity [2]: potently inhibited

Metabolism by Adh6 (NADPH consumption) (Adh6): does not metabolize
Molecule: N[C@@H](CSN=O)C(=O)O [CysNO, S-nitroso-cysteine]

Molecule: CCOC(=O)[C@@H](N)CSN=O [EtCysNO, S-nitroso-cysteine ethyl ester]
Change of mevalonate levels (WT and adh6Δ yeast; adh6Δ yeast, 100 μM): significant decrease | Change of free CoA levels (WT and adh6Δ yeast; yeast, 500 μM): large decreases | Change of acetyl-CoA levels (WT and adh6Δ yeast; yeast, 500 μM, increase larger in adh6Δ versus WT cells): increased | Number of SNO-proteins identified (intact yeast cells): 103

Metabolism by Adh6 (NADPH consumption) (Adh6): specific for SNO-CoA versus GSNO
Molecule: N[C@@H](CCC(=O)N[C@@H](CSN=O)C(=O)NCC(=O)O)C(=O)O [GSNO, S-nitrosoglutathione]
Effect on Erg10 thiolase activity [2]: neither GSNO (FIG. 4D) nor succinyl-CoA (a CoA analogue) (FIG. 4E) had a significant effect

Molecule: CC(C)(COP(=O)(O)OP(=O)(O)OC[C@H]1O[C@@H](n2cnc3c(N)ncnc32)[C@H](O)[C@@H]1OP(=O)(O)O)[C@@H](O)C(=O)NCCC(=O)NCCSC(=O)CCC(=O)O [succinyl-CoA]
Effect on Erg10 thiolase activity [2]: neither GSNO (FIG. 4D) nor succinyl-CoA (a CoA analogue) (FIG. 4E) had a significant effect

B1: Adh6 (Saccharomyces cerevisiae S288C) (protein)
chain: T2 sequence (Q04894 1-360)
notes: endogenous in cells; host or cells: S. cerevisiae cells; five-step chromatographic purification from crude extract
Km [3]: 180.5 ± 16.8 µM | kcat [3]: 43.275 ± 1.845 s⁻¹

B2: AKR1A1 (Bos taurus) (protein)
chain: MAASCILLHTGQKMPLIGLGTWKSDPGQVKAAIKYALSVGYRHIDCAAIYGNETEIGEALKENVGPGKLVPREELFVTSKLWNTKHHPEDVEPALRKTLADLQLEYLDLYLMHWPYAFERGDSPFPKNADGTIRYDSTHYKETWRALEALVAKGLVRALGLSNFNSRQIDDVLSVASVRPAVLQVECHPYLAQNELIAHCQARNLEVTAYSPLGSSDRAWRDPEEPVLLKEPVVLALAEKHGRSPAQILLRWQVQRKVSCIPKSVTPSRILENIQVFDFTFSPEEMKQLDALNKNLRFIVPMLTVDGKRVPRDAGHPLYPFNDPY
notes: Bovine kidney tissue (˜50 g) was suspended in 100 ml of lysis buffer; tissue Rockland Immunochemicals Inc. (tissue supplier); host or cells: bovine kidney
Km [4]: 20.5 ± 1.8 µM | kcat [4]: 10.4 ± 0.396 s⁻¹
